The values below come from patent US20220411419A1, “SMALL MOLECULE MODULATORS OF MHC-I” (RetroVirox, Inc., priority 2018, published 2022).

Data set [1] concerns downmodulation of MHC-I molecules expressed on the surface of HIV infected SupT1 cells. Put plainly: cells. Conditions: for EC50: Human immunodeficiency virus 1, SUP-T1, read-out: EC50 for inhibition of MHC-I downmodulation utilizing the R1 parameter; for activity at 100 µM: Human immunodeficiency virus 1, SUP-T1, read-out: R1 @ 100 μM (R1 value for MHC-I downmodulation as % of the vehicle control).

The next data set in a line: in vitro. As to conditions: human, uninfected SupT1 cells.

The term EC50 denotes the concentration at which the effect is half-maximal. One may read the CC50 as the concentration that lowers cell viability or growth by half. Lower therefore signals greater toxicity to the cells. Regarding `Cc1c(Cl)cccc1OCC(=O)N(C)c1nc2c(s1)CCCC2` [Compound 129, 2-(3-Chloro-2-methylphenoxy)-N-methyl-N-(4,5,6,7-tetrahydrobenzo[d]thiazol-2-yl)acetamide], the EC50 in data set [1] is greater than 25 µM. Besides, in “in vitro”, the CC50 at 48 h was greater than 125 µM.

Turning to `Cc1nccc(NC(=O)COc2cccc3c2OC(C)(C)C3)n1` [Compound 29, 2-((2,2-Dimethyl-2,3-dihydrobenzofuran-7-yl)oxy)-N-(2-methylpyrimidin-4-yl)acetamide], in data set [1], the EC50 is greater than 25 µM and the activity at 100 µM worked out at 65%. Moreover, in “in vitro”, the CC50 is greater than 100 µM and the CC50 at 48 h is greater than 100 µM.

As to `CCCN(C(=O)COc1cccc2c1OC(C)(C)C2)c1nc2c(s1)CCCC2` [Compound 57, 2-((2,2-dimethyl-2,3-dihydrobenzofuran-7-yl)oxy)-N-propyl-N-(4,5,6,7-tetrahydrobenzo[d]thiazol-2-yl)acetamide], the EC50 in data set [1] was 0.002 µM. The compound further had a CC50 at 48 h in “in vitro” greater than 125 µM.

On to `COc1cccc(F)c1OCC(=O)N(C)c1nc2c(s1)CCCC2` [Compound 124, 2-(2-Fluoro-6-methoxyphenoxy)-N-methyl-N-(4,5,6,7-tetrahydrobenzo[d]thiazol-2-yl)acetamide], for which, in data set [1], the EC50 was 0.26 µM. This compound also showed a CC50 at 48 h in the data set “in vitro” greater than 125 µM.

For `C=C(C)c1ccc(NC(=O)COc2cccc3c2OC(C)(C)C3)nn1` [Compound 86, 2-((2,2-Dimethyl-2,3-dihydrobenzofuran-7-yl)oxy)-N-(6-(prop-1-en-2-yl)pyridazin-3-yl)acetamide], the EC50 in data set [1] was determined as 1.1 µM. Moreover, the CC50 at 48 h in “in vitro” is greater than 100 µM.

Consider `Cc1nc(NC(=O)COc2cccc3c2OC(C)(C)C3)ccc1Br` [Compound 72, N-(5-Bromo-6-methylpyridin-2-yl)-2-((2,2-dimethyl-2,3-dihydrobenzofuran-7-yl)oxy)acetamide], for which the EC50 in data set [1] was 1.4 µM. Further, in “in vitro”, the CC50 at 48 h was greater than 100 µM.

In the case of `Cc1ccc(NC(=O)COc2cccc3c2OC(C)(C)C3)nn1` [Compound 2, 2-((2,2-Dimethyl-2,3-dihydrobenzofuran-7-yl)oxy)-N-(6-methylpyridazin-3-yl)acetamide], in data set [1], the EC50 was found to be 2.1 µM. In addition, the CC50 at 48 h in the data set “in vitro” is greater than 90 µM.

Take `Cc1cc(NC(=O)COc2cccc3c2OC(C)(C)C3)ncc1Cl` [Compound 18, N-(5-Chloro-4-methylpyridin-2-yl)-2-((2,2-dimethyl-2,3-dihydrobenzofuran-7-yl)oxy)acetamide]: in data set [1], the EC50 worked out at 18 µM. In “in vitro”, this compound gave a CC50 at 48 h greater than 125 µM.

As for `CC1(C)Cc2cccc(OCC(=O)Nc3nc4c(s3)CCCC4)c2O1` [Compound 195, 2-((2,2-Dimethyl-2,3-dihydrobenzofuran-7-yl)oxy)-N-(4,5,6,7-tetrahydrobenzo[d]thiazol-2-yl)acetamide], the EC50 in data set [1] was 0.053 µM. The same compound had a CC50 at 48 h in “in vitro” greater than 125 µM.

As to `CC1(C)Cc2cccc(OCC(=O)N(Cc3ccccc3)c3nc4c(F)cccc4s3)c2O1` [Compound 32, N-Benzyl-2-((2,2-dimethyl-2,3-dihydrobenzofuran-7-yl)oxy)-N-(4-fluorobenzo[d]thiazol-2-yl)acetamide], the EC50 in data set [1] came to 0.009 µM. The same compound registered a CC50 at 48 h in “in vitro” greater than 100 µM.

Regarding `Cc1csc(N(C(=O)COc2cccc3c2OC(C)(C)C3)c2ccccn2)n1` [Compound 91, 2-((2,2-Dimethyl-2,3-dihydrobenzofuran-7-yl)oxy)-N-(4-methylthiazol-2-yl)-N-(pyridin-2-yl)acetamide], in data set [1], the EC50 was found to be 0.89 µM. Also, in the data set “in vitro”, the CC50 at 48 h is greater than 100 µM.

As for `CC1(C)Cc2cccc(OCC(=O)Nc3ncnc4ccccc34)c2O1` [Compound 15, 2-((2,2-Dimethyl-2,3-dihydrobenzofuran-7-yl)oxy)-N-(quinazolin-4-yl) acetamide], in data set [1], the EC50 is greater than 25 µM and the activity at 100 µM turned out to be 14%. In the data set “in vitro”, this compound yielded a CC50 greater than 100 µM and a CC50 at 48 h greater than 100 µM.

On to `Cc1csc(N(C(=O)COc2cccc3c2OC(C)(C)C3)c2ccccc2)n1` [Compound 180, 2-((2,2-Dimethyl-2,3-dihydrobenzofuran-7-yl)oxy)-N-(4-methylthiazol-2-yl)-N-phenylacetamide], for which the EC50 in data set [1] is 0.028 µM. Also, in “in vitro”, the CC50 at 48 h is greater than 100 µM.

Turning to `Cc1ccc(NC(=O)CCc2cccc3c2OC(C)(C)C3)nn1` [Compound 103, 3-(2,2-Dimethyl-2,3-dihydrobenzofuran-7-yl)-N-(6-methylpyridazin-3-yl) propanamide], in data set [1], the EC50 was 1.48 µM. In “in vitro”, this compound came in with a CC50 at 48 h greater than 100 µM.

As to `Cc1csc(N(C(=O)COc2cccc3c2OC(C)(C)C3)c2ccncc2)n1` [Compound 95, 2-((2,2-Dimethyl-2,3-dihydrobenzofuran-7-yl)oxy)-N-(4-methylthiazol-2-yl)-N-(pyridin-4-yl)acetamide], in data set [1], the EC50 came out at 0.95 µM. For the same compound, in “in vitro”, the CC50 at 48 h is greater than 125 µM.

In the case of `CC1(C)Cc2cccc(OCC(=O)Nc3nc4c(F)c(F)ccc4s3)c2O1` [Compound 6, N-(4,5-Difluorobenzo[d]thiazol-2-yl)-2-((2,2-dimethyl-2,3-dihydrobenzofuran-7-yl)oxy)acetamide], in data set [1], the EC50 is 6.3 µM. For the same compound, the CC50 at 48 h in the data set “in vitro” came out at 36 µM.

On to `CCOc1ccccc1OCC(=O)N(C)c1nc2c(s1)CCCC2` [Compound 112, 2-(2-Ethoxyphenoxy)-N-methyl-N-(4,5,6,7-tetrahydrobenzo[d]thiazol-2-yl) acetamide], for which the EC50 in data set [1] amounted to 0.22 µM. In “in vitro”, this compound gave a CC50 at 48 h greater than 125 µM.

Take `C=Cc1ccc(NC(=O)COc2cccc3c2OC(C)(C)C3)nc1C` [Compound 74, 2-((2,2-Dimethyl-2,3-dihydrobenzofuran-7-yl)oxy)-N-(6-methyl-5-vinylpyridin-2-yl)acetamide]: the EC50 in data set [1] is 1.3 µM. The compound also displayed a CC50 at 48 h in “in vitro” greater than 125 µM.

As for `Cc1csc(N(C(=O)COc2cccc3c2OC(C)(C)C3)c2ccncn2)n1` [Compound 96, 2-((2,2-Dimethyl-2,3-dihydrobenzofuran-7-yl)oxy)-N-(4-methylthiazol-2-yl)-N-(pyrimidin-4-yl)acetamide], in data set [1], the EC50 was greater than 25 µM and the activity at 100 µM came to 32%. In the data set “in vitro”, the CC50 is greater than 125 µM and the CC50 at 48 h was greater than 125 µM.

On to `Cc1cc(NC(=O)COc2cccc3c2OC(C)(C)C3)ncc1Br` [Compound 76, N-(5-Bromo-4-methylpyridin-2-yl)-2-((2,2-dimethyl-2,3-dihydrobenzofuran-7-yl)oxy)acetamide], for which, in data set [1], the EC50 stood at 23 µM. The compound further had a CC50 at 48 h in “in vitro” greater than 125 µM.

For the compound `CC1(C)Cc2cccc(OCC(=O)Nc3cccc(Br)n3)c2O1` [Compound 30, N-(6-Bromopyridin-2-yl)-2-((2,2-dimethyl-2,3-dihydrobenzofuran-7-yl)oxy)acetamide], the EC50 in data set [1] was determined as 20 µM. Further, in “in vitro”, the cytotoxic concentration (CC50) at 48 h is greater than 125 µM.

For `COc1ccccc1OCC(=O)Nc1nc(C)cs1` [Compound 190, 2-(2-Methoxyphenoxy)-N-(4-methylthiazol-2-yl)acetamide], in data set [1], the EC50 is greater than 25 µM and the activity at 100 µM came out at 34%. In the data set “in vitro”, the CC50 is greater than 100 µM and the CC50 at 48 h is greater than 100 µM.

For the compound `CC1(C)Cc2cccc(OCC(=O)Nc3ccc(Br)nn3)c2O1` [Compound 25, N-(6-Bromopyridazin-3-yl)-2-((2,2-dimethyl-2,3-dihydrobenzofuran-7-yl)oxy)acetamide], the EC50 in data set [1] is 3.6 µM. The compound also gave a CC50 at 48 h in the data set “in vitro” greater than 100 µM.
